Experimental data as given in patent US20220267394A1, “COMPOUNDS FOR INDUCING TISSUE FORMATION AND USES THEREOF” (HISTIDE AG, priority 2015, published 2022).
Where no end group is shown, it is not given here.

Legend:
hMSCs [1] = assay: CD-105 expression by immunostaining; assay type: cell-based, human; settings: Table 7, previously reported peptides in solution (not combined with a bioactive carrier)
Procedure: For this type of quantification the freeware image analysis ImageJ® software was used. The raw image was first converted to an 8-bit file, and then the unsharp mask feature was used (settings 1:0.2) to remove the image background (rolling ball radius 10). After smoothing, the resulting image, which appears similar to the original photomicrograph but with minimal background, was then converted to a binary image by setting a threshold. Threshold values were determined empirically by selecting a setting, which gave the most accurate binary image for a subset of randomly selected photomicrographs. The cell area was determined by manual delineation on raw fluorescent images. Total contact area and mean contact area per cell were calculated by “analyse particules” in ImageJ®. A minimum of 30 cells per condition were analyzed. Stro-1, CD-34+, and CD-105 expressions were determined using this procedure.
Likewise, using the method detailed in the description, the RMSD of another 27 previously reported peptide sequences have been determined (Table 7) and correlated with the expressions of STRO-1 and CD-105 in solution. […] Data were obtained with peptides in solution (i.e. not combined with a bioactive carrier).

hMSCs [2] = assay: Loss of stemness: STRO-1 expression by immunostaining; assay type: cell-based, human
In short: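 hMSCs cultured on plastic with GFR-binding peptides in solution (some sequences tested with a bioactive carrier), then fixed, permeabilized and immunostained for Stro-1. Stro-1-positive contact number and area quantified by thresholded image analysis, minimum 30 cells per condition.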

[3] = system: Human Hematopoeitic Stem Cells; assay: Differentiation of human hematopoietic stem cells: CD34+ expression by immunostaining; assay type: cell-based; settings: peptides in solution in the cell culture media, 400 ng/mL, 48 hours
Text: (§1) The following starting materials and reagents were used: • Apatite ceramics (also called apatite or ceramic in the present invention) were synthetized as described in Mater Res. 2004; 7(4): 625-630. • Titanium was obtained from Goodfellow®. • Hydrogel (poly(acrylamide-co-acrylic acid) gel) was synthetized as described in Langmuir 2011; 27(22):13635-42. • PEEK was obtained from Goodfellow®. • PET (Poly(ethylene terephthalate) was obtained from Goodfellow®. • Type-I collagen sponge was obtained from Sigma®. • Hexane was obtained from Sigma®. • 3-succinimidyl-3-maleimidopropionate (SMP) was obtained from Sigma®. • DMF was obtained from Sigma®. • PBS 1× was obtained from Gibco®. • 3-(ethoxydimethylsilyl)propylamine was obtained from Sigma®. • Ammonium persulfate was obtained from Biorad®. • N,N,N′,N′-tetramethylethylenediamine was obtained from Aldrich®. • Acrylamid was obtained from Merck®. • Acrylic acid was obtained from Merck®. • N,N-methylene-bis-acrylamide was obtained from Merck®. • NaOH was obtained from Aldrich®. • N,N,N′,N′-tetramethylethylenediamine was obtained from Aldrich®. • Dimethylaminopropyl-3-ethylcarbodiimide hydrochloride was obtained from Aldrich®. • N-hydroxysuccinimide was obtained from Aldrich®. • 2-(N-morpholino)-ethane sulfonic acid was obtained from Aldrich®. • MilliQ water: is water characterised in terms of resistivity (typically 18.2 MΩ·cm at 25° C.). • Low glucose Dulbecco's Modified Eagle Medium (DMEM) was obtained from Invitrogen® • Minimum Essential Medium Eagle without ascorbic acid (αMEM) was obtained from Invitrogen®. • All of the cell culture experiments were carried out without any serum in the medium for the first 8 hours of culture. • Osteoblast progenitors or precursor osteoblasts: MC3T3-E1 cells were obtained from ATCC®. These cells were cultured in Alpha-MEM medium supplemented with 10% fetal calf serum (FCS) and 1% penicillin/streptomycin. All cells were used at a low passage number (passage 7), were subconfluently cultured and were seeded at 10^4 cells/cm^2 for the purpose of the experiments. • Human bone marrow Mesenchymal Stem Cells (hMSCs) were obtained from Lonza®. These cells were cultured in Alpha-MEM supplemented with 10% (v/v) FBS and 1% penicillin/streptomycin and incubated in a humidified atmosphere containing 5% (v/v) CO2 at 37° C. All cells were used at a low passage number (passage 2 to 4), were subconfluently cultured and were seeded at 10^4 cells/cm^2 for the purpose of the experiments. • Human adipose Mesenchymal Stem Cells (haMSCs) were obtained from Lonza®. These cells were cultured in Alpha-MEM supplemented with 10% (v/v) FBS and 1% penicillin/streptomycin and incubated in a humidified atmosphere containing 5% (v/v) CO2 at 37° C. All cells were used at a low passage number (passage 3 to 4), were subconfluently cultured and were seeded at 10^4 cells/cm^2 for the purpose of the experiments. • Mouse Hair Follicle Stem Cells were isolated and cultured as described in Methods Mol Biol. 2010; 585:401-20. • Neuron cells are Neuronal Schwann Cells obtained from ATCC®. These cells were cultured in Dulbecco's Modified Eagle's Medium supplemented with 10% (v/v) FBS and 1% penicillin/streptomycin and incubated in a humidified atmosphere containing 5% (v/v) CO2 at 37° C. All cells were used at a low passage number (passage 6-8), were subconfluently cultured and were seeded at 10^4 cells/cm^2 for the purpose of the experiments. • Human umbilical-vein endothelial cells (HUVECs) were purchased from Promocell®. HUVECs were isolated and grown on gelatin coated culture flasks in a complete HUVEC culture medium (IMDM (Invitrogen, France) supplemented with 20% (v/v) fetal bovine serum (FBS) (PAA, France) and 0.4% (v/v) EC growth supplement/heparin kit (Promocell, France)). Cells were subcultured by using trypsin/EDTA (Invitrogen, France) and maintained in a humidified atmosphere containing 5% CO2 at 37° C. These cells were used at a passage number 3 to 5 for the purpose of the experiments. […]

hMSCs [4] = assay: Cartilage regeneration: chondrocyte differentiation of hMSCs on 14 kPa hydrogels (Sox9, Aggrecan); assay type: cell-based, human; settings: 14 kPa hydrogels covalently modified with peptides, 96 hours
Procedure: Total RNA was extracted by using the RNeasy total RNA kit (Qiagen®) according to the manufacturer's instructions. Purified total RNA was used as a template in order to make cDNA by a reverse transcription reaction (Gibco Brl®) with random primers (Invitrogen®). The cDNA was then used as a template for a real-time PCR amplification in the presence of SYBR green reagents (Bio-Rad®) by using a thermocycler (iCycler, Biorad®). Data were analyzed with the iCycler IQ™® software and compared by the ΔΔCt method. […]
Total RNA was extracted by using the RNeasy Mini Kit (Qiagen) and […] RNA was used for cDNA synthesis with AMV kit (Invitrogen®) according to the manufacturer' instructions. Semi-quantitative reverse transcriptase-polymerase chain reaction (RT-PCR) was performed with Taq DNA Polymerase (Invitrogen®) in a thermocycler (Bio-Rad®). […] The PCR products were analyzed on 2% agarose gels. For the Aggrecan gene, the PCR bands were densitometrically quantified by using the BioCapt software (Vilber). […]
It was then verified that these hMSCs cultured on the covalently modified hydrogels were differentiated into chondrocyte cells by analyzing the expression of the chondrocyte gene biomarker: Aggrecan. […] For that a semi-quantitative RT-PCR was performed as described in the Methods section for the Aggrecan gene and a Quantitative Real Time PCR for Sox9.

[5] = Stability of non-covalent deposit of FITC-labelled peptides on apatite ceramics or type-I collagen sponge; assay type: physicochemical; settings: non-covalent coating, after 3, 7 or 10 days
Procedure: Non-covalent modifications of the materials were performed in air atmosphere at room temperature. The non-covalent coating strategy consisted in using a mixture of inducing peptide (SEQ ID NO: 23; concentration of 1×10^−3M) with an apatite ceramics implant or a mixture of inducing peptide (SEQ ID NO: 22; concentration of 1×10^−3M) with a type-I collagen sponge. The non-covalently coated conventional materials were characterized by using fluorescent peptides (Here SEQ ID NO: 22 and 23 covalently bound to fluorescein isothiocyanate (FITC), FIG. 6). The results shown here in FIG. 6 were obtained from experiments performed with apatite ceramics and a type-I collagen sponge. […] Indeed, after 3, 7 or 10 days, the osteogenic peptides were still coupled to the ceramics or the type-I collagen (FIGS. 7a and b).

Hair Follicle Stem Cells = assay: Loss of quiescence and activation of hair follicle stem cells on 73 kPa hydrogels (Sox2, BMP-6 release); assay type: cell-based, mouse; settings: 73 kPa hydrogels covalently modified with peptides
Text: as §1, with “C.” for “C. All cells were used at a low passage number (passage 3 to 4), were subconfluently cultured and were seeded at 10^4 cells/cm^2 for the purpose of the experiments. • Mouse Hair Follicle Stem Cells were isolated and cultured as described in Methods Mol Biol. 2010; 585:401-20. • Neuron cells are Neuronal Schwann Cells obtained from ATCC®. These cells were cultured in Dulbecco's Modified Eagle's Medium supplemented with 10% (v/v) FBS and 1% penicillin/streptomycin and incubated in a humidified atmosphere containing 5% (v/v) CO2 at 37° C. All cells were used at a low passage number (passage 6-8), were subconfluently cultured and were seeded at 10^4 cells/cm^2 for the purpose of the experiments. • Human umbilical-vein endothelial cells (HUVECs) were purchased from Promocell®. HUVECs were isolated and grown on gelatin coated culture flasks in a complete HUVEC culture medium (IMDM (Invitrogen, France) supplemented with 20% (v/v) fetal bovine serum (FBS) (PAA, France) and 0.4% (v/v) EC growth supplement/heparin kit (Promocell, France)). Cells were subcultured by using trypsin/EDTA (Invitrogen, France) and maintained in a humidified atmosphere containing 5% CO2 at 37° C. These cells were used at a passage number 3 to 5 for the purpose of the experiments.”

[6] = Table 7, previously reported peptides in solution (not combined with a bioactive carrier)
[7] = Table 8, SEQ ID NO: 1 to 49 tested in combination with a bioactive carrier (titanium, ceramics, collagen, etc.)

2215 (VPQTLDPLPIIYYVGRNVRVEQLSNMVVRA; Comparative sequence) [compound 2215]
CD-105 expression (%) (hMSCs [1]): 68%
STRO-1 expression (%) (hMSCs [2]; [6]): 71%

2148 (KASSVPQEERPVQMRKIGGGGGGGKKATVMIVRSSKSS; GFR-binding peptide) [compound 2148]
CD34+ Expression (%) [3]: 32%

37 (CASAAPSSVPQALEPLPIVYYVGRTPKVEQLSNMIVRSSK; not fully specified; ends and bridges not checked) [compound 37]
Sox9 protein expression (hMSCs [4]): expression of the Sox9 protein was observed
STRO-1 expression (%) (hMSCs [2]; [7]): 21%

2149 (VSQAARPVQTRKIDDMGVPTKKATVAAVKS; GFR-binding peptide) [compound 2149]
CD34+ Expression (%) [3]: 28%

2235 (APTALSAISMLYFDESGNVVLRQYEDMVVEG; Peptide reported in US20120244575, SEQ ID NO:4400) [compound 2235]
CD-105 expression (%) (hMSCs [1]): 63%
STRO-1 expression (%) (hMSCs [2]; [6]): 77%

2230 (CCVPERLSPISVLFFDNEDNVVLRHYEDMVVDECGCR; Comparative sequence) [compound 2230]
CD-105 expression (%) (hMSCs [1]): 78%
STRO-1 expression (%) (hMSCs [2]; [6]): 81%

2157 (EPSSVSQAAEPLPIVYYRIKPHQGQHEQLSNMIVKSSKSS; GFR-binding peptide) [compound 2157]
CD34+ Expression (%) [3]: 23%

WWFWGKVPKPSSAPTQLSAISTLYLDEYDKVVLKNYQNMVVR (WWFWGKVPKPXXAPTQLSAISTLYLDEYDKVVLKNYQNMVVR; GFR-binding peptide; MOD_RES (11), (12): Xaa is C or S) [SEQ ID NO: 22]
release of peptide from type-I collagen sponge over time [5]: no significant release

GTPGPKVPKPSSAPTQLSAISTLYLDEYDKVVLKNYQNMAVR (GTPGPKVPKPXXAPTQLSAISTLYLDEYDKVVLKNYQNMAVR; GFR-binding peptide; MOD_RES (11), (12): Xaa is C or S) [SEQ ID NO: 23]
release of peptide from apatite ceramics over time [5]: no significant release

2150 (PTSSAPTDLRSVKMAKVEIVRKKPIFKEVQVDMVVKASGSH; GFR-binding peptide) [compound 2150]
CD34+ Expression (%) [3]: 26%

2154 (VPTAAEPLTMLYYEIVRKKPIFEQLSNMVEHS; GFR-binding peptide) [compound 2154]
CD34+ Expression (%) [3]: 21%

CKIPKASSVPTELEPLPIVYYVGRKPKVEQLSNMIVRS (CKIPKAXXVPTELEPLPIVYYVGRKPKVEQLSNMIVRS; GFR-binding peptide; MOD_RES (7), (8): Xaa is C or S) [SEQ ID NO: 36]
Sox9 protein expression (hMSCs [4]): expression of the Sox9 protein was observed

2147 (IPKASSAPVGQRPVQMRKIDKGVVTYKKATVSSVEESGSL; GFR-binding peptide) [compound 2147]
CD34+ Expression (%) [3]: 27%

2153 (KASSSRVKMSNITVQIMRIKPHQGQHIGEMSVVEEHASGSH; GFR-binding peptide) [compound 2153]
CD34+ Expression (%) [3]: 22%

2155 (EPSSSRVRLEPLTTLYYGGGGGGGEQLSNVVEEHSKSS; GFR-binding peptide) [compound 2155]
CD34+ Expression (%) [3]: 29%

2152 (IPKASSVPQSSSNITMQIMGGGGGGGIGEMSSSVKSSGSL; GFR-binding peptide) [compound 2152]
CD34+ Expression (%) [3]: 30%

2238 (CCAPTELSAISVLYFDDSSNVILKKYEDMVVEACGCR; Comparative sequence) [compound 2238]
CD-105 expression (%) (hMSCs [1]): 72%
STRO-1 expression (%) (hMSCs [2]; [6]): 76%

2240 (KPCCAPTELSAISVLYFDDSSNVILKKYEDMVVEACGCR; Peptide reported in US20050250936, SEQ ID NO:119) [compound 2240]
CD-105 expression (%) (hMSCs [1]): 69%
STRO-1 expression (%) (hMSCs [2]; [6]): 73%

2156 (APVKMEPLPTVYYDDMGVPTEQLSNDMVEESGSL; GFR-binding peptide) [compound 2156]
CD34+ Expression (%) [3]: 25%

2151 (PTSSVPTGGRSVKMAKVDKGVVTYKEVQVMVVAESKSS; GFR-binding peptide) [compound 2151]
CD34+ Expression (%) [3]: 24%

CGIPEPSSVPEKMSSLSILFFDENKNVVLKVYPNM (CGIPEPXXVPEKMSSLSILFFDENKNVVLKVYPNM; GFR-binding peptide; MOD_RES (7), (8): Xaa is C or S) [SEQ ID NO: 41]
BMP-6 release in the cell culture medium (Hair Follicle Stem Cells): decrease
Sox2 protein expression (Hair Follicle Stem Cells): increase

42 (CGIPEPSSVPEKTSSLSLLFFDENKNVVLKVYPNM; not fully specified; ends and bridges not checked) [compound 42]
STRO-1 expression (%) (hMSCs [2]; [7]): 28%
BMP-6 release in the cell culture medium (Hair Follicle Stem Cells): decrease
Sox2 protein expression (Hair Follicle Stem Cells): increase
